Laboratory results taken from US6187559A, “Phospholipase D gene” (Novartis AG, priority 1998, dated 2001).

Tested on: PLD (phospholipase D)
Assay: Assay for PLD activity (release of 3H choline from radiolabeled PC)
Format: biochemical
Conditions: substrate [methyl-3H] choline dipalmitoyl PC; PLDT buffer (20 mM Tris-HCl pH 7.0, 1.0 mM EDTA, 0.05% Triton X-100), 37° C.
Procedure: The PLD assay measured the release of ^3 H choline from radiolabeled PC (Steed et al. (1996) Biochemistry 35:5229-5237). Product was separated from substrate by partitioning into water from a chloroform:methanol extraction. ^3 H PC substrate was prepared by drying stock (in methanol) with argon and re-dissolving into minimal volumes of methanol (2-10 μl). After dilution with a buffer of 20 mM Tris-HCl, pH 7.0, 1.0 mM EDTA and 0.05% Triton X-100 (PLDT buffer) to a 5× concentration, the substrate was sonicated for 30 sec and used immediately. The assay was performed with 1.0 μM [methyl-^3 H] choline L-a-PC dipalmitoyl phosphatidylcholine (0.1 μCi/assay) and enzyme with PLDT buffer added to a final volume of 50 μl using polypropylene tubes. Since the estimated Km is greater than 1 μM, PC is limiting in this assay. Unfortunately, the solubility constraints of the lipid substrate preclude the use of higher PC concentrations. […] The radioactivity in the aqueous phase (200 μl) was counted in either a Beckman LS 3801 (Beckman Instruments Columbia Md.) or Wallac 1450 Microbeta Plus (Wallac Inc., Gaithersburg Md.) liquid scintillation counter after the addition of scintillant. […] The material was assayed using transphosphatidylation to butanol and ethanol to verify that PLD activity is being measured. […]

**Q.** How did the “estimated Km” value turn out when CCCCCCCCCCCCCCCC(=O)OC[C@H](COP(=O)([O-])OCC[N+](C)(C)C)OC(=O)CCCCCCCCCCCCCCC [PC, dipalmitoyl phosphatidylcholine] was run?
**A.** Its value is “greater than 1 μM”.
